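Cells were grown in 96-well plates and exposed to each compound for 48 hours at five concentrations; endpoints were interpolated linearly between bracketing concentrations, or set to the highest concentration if not reached. TGI denotes the concentration required for complete inhibition of growth.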
Columns and labels:
Experiment in all cases: inhibition of tumour cell growth, NCI panel, 48 h
[1] = tested on: U251 CNS
[2] = tested on: SNB-75 CNS
[3] = tested on: OVCAR-5 ovarian
[4] = tested on: CAKI-1 renal
[5] = tested on: NCI-H460 lung
[6] = tested on: UO-31 renal
[7] = tested on: RXF 393 renal
[8] = tested on: NCI-H226 lung
[9] = tested on: LOX IMVI melanoma
[10] = tested on: IGROV1 ovarian
[11] = tested on: HCT-15 colon
[12] = tested on: NCI/ADR-RES ovarian
[13] = tested on: MDA-MB-435
[14] = tested on: A549 NSCLC
[15] = tested on: HCT-116 colon
[16] = tested on: MCF7 breast
[17] = tested on: SF-295 CNS
[18] = tested on: HT29 colon
[19] = tested on: HS 578T breast
[20] = tested on: PC-3 prostate
[21] = tested on: MDA-MB-231 breast
[22] = tested on: SR leukemia
[23] = tested on: UACC-257 melanoma
[24] = tested on: COLO 205 colon
[25] = tested on: SW-620 colon
[26] = tested on: HOP-92 NSCLC
[27] = tested on: SN12C renal
[28] = tested on: EKVX NSCLC
[29] = tested on: KM12 colon
[30] = tested on: RPMI-8226 leukemia
[31] = tested on: SF-539 CNS
[32] = tested on: HOP-62 NSCLC
[33] = tested on: MDA-N
[34] = tested on: BT-549 breast
[35] = tested on: T-47D breast
[36] = tested on: SK-MEL-28 melanoma
[37] = tested on: SK-OV-3 ovarian
[38] = tested on: OVCAR-3 ovarian
[39] = tested on: 786-0 renal
[40] = tested on: K-562 leukemia
[41] = tested on: HCC-2998 colon
[42] = tested on: OVCAR-8 ovarian
[43] = tested on: UACC-62 melanoma
[44] = tested on: MALME-3M melanoma
[45] = tested on: DU-145 prostate
[46] = tested on: M14 melanoma
[47] = tested on: NCI-H522 lung
[48] = tested on: MOLT-4 leukemia
[49] = tested on: SK-MEL-5 melanoma
[50] = tested on: HL-60(TB) leukemia
[51] = tested on: SF-268 CNS
[52] = tested on: CCRF-CEM leukemia
[53] = tested on: ACHN renal
[54] = tested on: NCI-H23 lung
[55] = tested on: TK-10 renal
[56] = tested on: SNB-19 CNS
[57] = tested on: A498 renal
[58] = tested on: OVCAR-4 ovarian
[59] = tested on: SK-MEL-2 melanoma

## COC(=O)C(C)(NC(=O)C(CC(=O)OC(C)(C)C)NC(=O)OC(C)(C)C)c1ccccc1 (stereo not drawn)
[1]
  TGI: > 100 µM
[2]
  TGI: > 100 µM
[3]
  TGI: > 100 µM
[4]
  TGI: > 100 µM
[5]
  TGI: > 100 µM
[6]
  TGI: > 100 µM
[7]
  TGI: > 100 µM
[8]
  TGI: > 100 µM
[9]
  TGI: > 100 µM
[10]
  TGI: > 100 µM
[11]
  TGI: > 100 µM
[12]
  TGI: > 100 µM
[13]
  TGI: > 100 µM
[14]
  TGI: > 100 µM
[15]
  TGI: > 100 µM
[16]
  TGI: > 100 µM
[17]
  TGI: > 100 µM
[18]
  TGI: > 100 µM
[19]
  TGI: > 100 µM
[20]
  TGI: > 100 µM
[21]
  TGI: > 100 µM
[22]
  TGI: > 100 µM
[23]
  TGI: > 100 µM
[24]
  TGI: > 100 µM
[25]
  TGI: > 100 µM
[26]
  TGI: > 100 µM
[27]
  TGI: > 100 µM
[28]
  TGI: > 100 µM
[29]
  TGI: > 100 µM
[30]
  TGI: > 100 µM
[31]
  TGI: > 100 µM
[32]
  TGI: > 100 µM
[33]
  TGI: > 100 µM
[34]
  TGI: > 100 µM
[35]
  TGI: > 100 µM
[36]
  TGI: > 100 µM
[37]
  TGI: > 100 µM
[38]
  TGI: > 100 µM
[39]
  TGI: > 100 µM
[40]
  TGI: > 100 µM
[41]
  TGI: > 100 µM
[42]
  TGI: > 100 µM
[43]
  TGI: > 100 µM
[44]
  TGI: > 100 µM
[45]
  TGI: > 100 µM
[46]
  TGI: > 100 µM
[47]
  TGI: > 100 µM
[48]
  TGI: > 100 µM
[49]
  TGI: > 100 µM
[50]
  TGI: > 100 µM
[51]
  TGI: > 100 µM
[52]
  TGI: > 100 µM
[53]
  TGI: > 100 µM
[54]
  TGI: > 100 µM
[55]
  TGI: > 100 µM
[56]
  TGI: > 100 µM
[57]
  TGI: > 100 µM

## CNn1c(-c2ccccc2)n[nH]c1=O
[1]
  TGI: > 100 µM
[2]
  TGI: > 100 µM
[3]
  TGI: > 100 µM
[4]
  TGI: > 100 µM
[5]
  TGI: > 100 µM
[6]
  TGI: > 100 µM
[8]
  TGI: > 100 µM
[9]
  TGI: > 100 µM
[10]
  TGI: > 100 µM
[11]
  TGI: > 100 µM
[12]
  TGI: > 100 µM
[13]
  TGI: > 100 µM
[14]
  TGI: > 100 µM
[15]
  TGI: > 100 µM
[16]
  TGI: > 100 µM
[17]
  TGI: > 100 µM
[18]
  TGI: > 100 µM
[19]
  TGI: > 100 µM
[20]
  TGI: > 100 µM
[21]
  TGI: > 100 µM
[22]
  TGI: > 100 µM
[23]
  TGI: > 100 µM
[24]
  TGI: > 100 µM
[25]
  TGI: > 100 µM
[26]
  TGI: > 100 µM
[27]
  TGI: > 100 µM
[28]
  TGI: > 100 µM
[29]
  TGI: > 100 µM
[30]
  TGI: > 100 µM
[31]
  TGI: > 100 µM
[58]
  TGI: > 100 µM
[32]
  TGI: > 100 µM
[33]
  TGI: > 100 µM
[34]
  TGI: > 100 µM
[35]
  TGI: > 100 µM
[36]
  TGI: > 100 µM
[37]
  TGI: > 100 µM
[38]
  TGI: > 100 µM
[39]
  TGI: > 100 µM
[40]
  TGI: > 100 µM
[41]
  TGI: > 100 µM
[42]
  TGI: > 100 µM
[43]
  TGI: > 100 µM
[44]
  TGI: > 100 µM
[45]
  TGI: > 100 µM
[46]
  TGI: > 100 µM
[47]
  TGI: > 100 µM
[48]
  TGI: > 100 µM
[49]
  TGI: > 100 µM
[50]
  TGI: > 100 µM
[51]
  TGI: > 100 µM
[52]
  TGI: > 100 µM
[59]
  TGI: > 100 µM
[53]
  TGI: > 100 µM
[54]
  TGI: > 100 µM
[55]
  TGI: > 100 µM
[56]
  TGI: > 100 µM
[57]
  TGI: > 100 µM

## COC(=O)Cc1cc(O)c(C/C=C(\C)CC/C=C(\C)C(O)C(=O)C=C(C)C)cc1O (stereo not drawn)
[1]
  TGI: 35.7 µM
[2]
  TGI: 56.4 µM
[3]
  TGI: > 100 µM
[5]
  TGI: 48.3 µM
[6]
  TGI: 46 µM
[7]
  TGI: 30 µM
[8]
  TGI: 51.8 µM
[10]
  TGI: 63 µM
[12]
  TGI: 58.4 µM
[13]
  TGI: 45.4 µM
[14]
  TGI: > 100 µM
[15]
  TGI: 31.1 µM
[16]
  TGI: 89.5 µM
[17]
  TGI: 55.1 µM
[18]
  TGI: 61.3 µM
[19]
  TGI: > 100 µM
[20]
  TGI: 87.7 µM
[21]
  TGI: 78.3 µM
[22]
  TGI: 41.6 µM
[23]
  TGI: 77.6 µM
[24]
  TGI: 57.7 µM
[25]
  TGI: 87.8 µM
[26]
  TGI: 47.7 µM
[27]
  TGI: 58 µM
[28]
  TGI: 66.8 µM
[29]
  TGI: 43.2 µM
[30]
  TGI: 69.6 µM
[31]
  TGI: 40.5 µM
[58]
  TGI: > 100 µM
[32]
  TGI: 41.6 µM
[33]
  TGI: > 100 µM
[34]
  TGI: 72.8 µM
[35]
  TGI: 43.2 µM
[37]
  TGI: 78.8 µM
[38]
  TGI: 42.5 µM
[39]
  TGI: > 100 µM
[40]
  TGI: 39.1 µM
[42]
  TGI: 55.1 µM
[43]
  TGI: 44.4 µM
[44]
  TGI: 48.6 µM
[45]
  TGI: > 100 µM
[46]
  TGI: 64.8 µM
[47]
  TGI: 39.8 µM
[48]
  TGI: 36.9 µM
[49]
  TGI: 40.4 µM
[50]
  TGI: 12 µM
[51]
  TGI: 40.6 µM
[52]
  TGI: 10.3 µM
[59]
  TGI: 48.6 µM
[53]
  TGI: 71 µM
[54]
  TGI: 93.3 µM
[56]
  TGI: 86 µM

## CCCCCCCCCCCCCCCCCCNc1ccn(C2OC(COP(=O)(O)OCC3OC(n4cc(C)c(=O)[nH]c4=O)CC3O)C(O)C2O)c(=O)n1 (stereo not drawn)
[1]
  TGI: 34.9 µM
[2]
  TGI: 33 µM
[3]
  TGI: 28.2 µM
[4]
  TGI: 33.2 µM
[5]
  TGI: 36.3 µM
[6]
  TGI: 33.9 µM
[7]
  TGI: 25.9 µM
[8]
  TGI: 42.1 µM
[9]
  TGI: 31.9 µM
[11]
  TGI: 33.5 µM
[12]
  TGI: 31.3 µM
[13]
  TGI: 33.7 µM
[14]
  TGI: 32.4 µM
[15]
  TGI: 30.8 µM
[16]
  TGI: > 100 µM
[17]
  TGI: 33.1 µM
[18]
  TGI: 30.4 µM
[19]
  TGI: 42.4 µM
[20]
  TGI: 10.2 µM
[21]
  TGI: 31.1 µM
[22]
  TGI: 28.2 µM
[23]
  TGI: 37.1 µM
[24]
  TGI: 28.1 µM
[25]
  TGI: 28.5 µM
[26]
  TGI: 62.8 µM
[27]
  TGI: 33.4 µM
[28]
  TGI: 34.9 µM
[29]
  TGI: 36.4 µM
[30]
  TGI: 37.3 µM
[31]
  TGI: 31.5 µM
[58]
  TGI: 39.4 µM
[32]
  TGI: 32.4 µM
[33]
  TGI: 33.1 µM
[34]
  TGI: 29.9 µM
[35]
  TGI: 41.8 µM
[36]
  TGI: 31.3 µM
[37]
  TGI: 31.8 µM
[38]
  TGI: 39.7 µM
[39]
  TGI: 31.9 µM
[40]
  TGI: 50.2 µM
[41]
  TGI: 32.6 µM
[42]
  TGI: 31.6 µM
[43]
  TGI: 33.8 µM
[44]
  TGI: 31.4 µM
[45]
  TGI: 35.8 µM
[46]
  TGI: 30.7 µM
[47]
  TGI: 30.3 µM
[48]
  TGI: 25.7 µM
[49]
  TGI: 28.1 µM
[51]
  TGI: 32.4 µM
[52]
  TGI: 23.6 µM
[53]
  TGI: 44.4 µM
[54]
  TGI: 31 µM
[55]
  TGI: 22.3 µM
[56]
  TGI: 29.8 µM
[57]
  TGI: 58.3 µM
